Where two headings read alike, the source gives them in different places.
Target: T1, Human GPR120 (Homo sapiens, UniProt Q5NUL3)
T1 construct: Ga16 (promiscuous G protein) fusion partner; expressed in transfected cells
T1 sequence (Q5NUL3 with tags, fused parts or gaps): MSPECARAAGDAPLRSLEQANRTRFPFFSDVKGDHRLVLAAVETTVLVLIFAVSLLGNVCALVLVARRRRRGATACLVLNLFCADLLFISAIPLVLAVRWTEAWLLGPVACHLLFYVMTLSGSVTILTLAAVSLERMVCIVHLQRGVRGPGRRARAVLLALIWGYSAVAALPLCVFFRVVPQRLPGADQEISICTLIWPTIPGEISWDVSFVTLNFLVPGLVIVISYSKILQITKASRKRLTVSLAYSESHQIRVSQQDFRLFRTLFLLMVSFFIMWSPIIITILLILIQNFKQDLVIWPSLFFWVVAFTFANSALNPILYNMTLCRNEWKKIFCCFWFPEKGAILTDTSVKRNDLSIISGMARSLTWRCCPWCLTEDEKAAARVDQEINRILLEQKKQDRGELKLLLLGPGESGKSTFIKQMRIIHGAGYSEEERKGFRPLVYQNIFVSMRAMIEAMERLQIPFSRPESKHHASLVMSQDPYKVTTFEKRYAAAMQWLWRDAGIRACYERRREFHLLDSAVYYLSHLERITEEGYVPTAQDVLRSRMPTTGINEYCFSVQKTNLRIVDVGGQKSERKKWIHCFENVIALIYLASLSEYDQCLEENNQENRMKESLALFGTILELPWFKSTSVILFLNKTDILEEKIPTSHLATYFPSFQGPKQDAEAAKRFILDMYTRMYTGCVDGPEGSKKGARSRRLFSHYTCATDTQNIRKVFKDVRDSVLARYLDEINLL
Test: FLIPR assay: agonist-induced calcium mobilization in HEK293-GPR120-Ga16 cells
Type: cell-based
Settings: for EC50: GPR120 activation, calcium mobilization, HEK293-GPR120-Ga16 cells; for Emax: % enhancement of the test compound relative to a known compound, read-out: % Efficiency
Experimental: Human GPR120 stable cell-line was generated in HEK293 cells. GPR120 (Accession number BC101175) is fused to a promiscuous G protein, Ga16. The expression plasmid is transfected into HEK293 cells using Fugene6 following manufacturer's instruction. Stable cell-lines are generated following drug selection.
FLIPR (Fluorimetric Imaging Plate Reader, Molecular Devices) assays are performed to measure agonist-induced calcium mobilization in the GPR120-expressing cells. One day before the FLIPR assay, HEK293-GPR120-Ga16 cells are seeded into poly-D-lysine coated black-wall-clear bottom 384 well plates (Falcon) at 25,000 cells per well in 40 μl DMEM supplemented with 1% of FBS. The cells are incubated overnight at 37° C. in a humidified incubator. The medium is aspirated on the day of the FLIPR assay. The cells are incubated with 50 μl/well of the assay buffer (HBSS, 20 mM HEPES, 2.5 mM probenecid, pH7.4) containing Fluo-4 NM dye (Invitrogen cat# F36205) at 37° C. for 45 minutes, and then equilibrated at room temperature for 30 minutes. Compounds are dissolved in DMSO and diluted to desired concentrations with assay buffer. Fluorescent output is measured immediately following compound addition (12.5 μl/well) on the FLIPR machine.
An EC50 value was calculated using the change of fluorescent intensity from the reaction initiation. […] In some examples, compounds provided herein have EC50 values from 0.1 μM to 5 μM, while in other examples from 0.5 μM to 5 μM.
The EC50 value in those experiments is given as that concentration of the test compound in question that provoke a response halfway between the baseline and maximum responses. In certain examples compounds of Formula (I) have EC50 values from 0.001 μM to 5 μM. In other examples, compounds of Formula (I) have EC50 values from 0.001 μM to 4 μM. In other examples, compounds of Formula (I) have EC50 values from 0.001 μM to 3 μM. In other examples, compounds of Formula (I) have EC50 values from 0.001 μM to 2 μM. In other examples, compounds of Formula (I) have EC50 values from 0.001 μM to 1 μM. In other examples, compounds of Formula (I) have EC50 values from 0.001 μM to 0.5 μM. […] In other examples, compounds of Formula (I) have EC50 values from 0.001 μM to 0.1 μM.
The % efficiency in those experiments is given as that % enhancement of the test compound in question relative to a known compound. In certain examples compounds of Formula (I) have a % efficiency values from 50% to 150%. In other examples, compounds of Formula (I) have a % efficiency values from 55% to 150%. In other examples, compounds of Formula (I) have a % efficiency values from 60% to 150%. In other examples, compounds of Formula (I) have a % efficiency values from 65% to 150%. In other examples, compounds of Formula (I) have a % efficiency values from 70% to 150%. In other examples, compounds of Formula (I) have a % efficiency values from 75% to 150%. In other examples, compounds of Formula (I) have a % efficiency values from 80% to 150%. In other examples, compounds of Formula (I) have a % efficiency values from 85% to 150%. In other examples, compounds of Formula (I) have a % efficiency values from 90% to 150%. In other examples, compounds of Formula (I) have a % efficiency values from 95% to 150%. In other examples, compounds of Formula (I) have a % efficiency values from 100% to 150%.

EC50 (read-out: EC50 Range) [nM] | Emax [%] | EC50 (read-out: EC50) [nM] | Compound
1000 to 5000 | – | – | CCc1ccc(-c2cn(-c3cc(OC)cc(C(=O)O)c3)nn2)cc1 [Compound 65, 3-(4-(4-ethylphenyl)-1H-1,2,3-triazol-1-yl)-5-methoxybenzoic acid]
100 to 250 | – | – | CCn1c(-c2ccccc2Cl)cs/c1=N\c1ccc(C(=O)O)cc1 [Compound 34, (Z)-4-(4-(2-chlorophenyl)-3-ethylthiazol-2(3H)-ylideneamino)benzoic acid]
500 to 1000 | 88.1 | 780 | CCn1c(-c2ccccc2Oc2ccccc2)cs/c1=N\c1ccc(C(=O)O)cc1 [Compound 8, (Z)-4-(3-ethyl-4-(2-phenoxyphenyl)thiazol-2(3H)-ylideneamino)benzoic acid]
1 to 100 | – | – | CCn1c(-c2ccccc2Br)cs/c1=N\c1ccc(C(=O)O)cc1 [Compound 42, (Z)-4-(4-(2-bromophenyl)-3-ethylthiazol-2(3H)-ylideneamino)benzoic acid]
250 to 500 | – | – | CCn1c(-c2ccccc2OC(F)(F)F)cs/c1=N\c1ccc(C(=O)O)cc1 [Compound 12, (Z)-4-(3-ethyl-4-(2-(trifluoromethoxy)phenyl)thiazol-2(3H)-ylideneamino)benzoic acid]
100 to 250 | – | – | CCn1c(-c2cccc(Br)c2)cs/c1=N\c1ccc(C(=O)O)cc1 [Compound 47, (Z)-4-(4-(3-bromophenyl)-3-ethylthiazol-2(3H)-ylideneamino)benzoic acid]
1000 to 5000 | – | – | O=C(O)c1cccc(-n2cc(-c3ccc(Cl)cc3)nn2)c1 [Compound 59, 3-(4-(4-chlorophenyl)-1H-1,2,3-triazol-1-yl)benzoic acid]
500 to 1000 | – | – | CCn1c(-c2cccc(OC)c2)cs/c1=N\c1ccc(C(=O)O)cc1 [Compound 33, (Z)-4-(3-ethyl-4-(3-methoxyphenyl)thiazol-2(3H)-ylideneamino)benzoic acid]
100 to 250 | – | – | CCn1c(-c2ccccc2OC)cs/c1=N\c1ccc(S(=O)(=O)O)cc1 [Compound 28, (Z)-4-(3-ethyl-4-(2-methoxyphenyl)thiazol-2(3H)-ylideneamino)benzenesulfonic acid]
500 to 1000 | 69 | 878 | CC(C)c1ccc(-n2cc(-c3cccc(C(=O)O)c3)nn2)cc1 [Compound 64, 3-(1-(4-isopropylphenyl)-1H-1,2,3-triazol-4-yl)benzoic acid]
100 to 250 | – | – | CCn1c(-c2ccccc2O)cs/c1=N\c1ccc(C(=O)O)cc1 [Compound 48, (Z)-4-(3-ethyl-4-(2-hydroxyphenyl)thiazol-2(3H)-ylideneamino)benzoic acid]
500 to 1000 | – | – | CCn1c(-c2cccc(C#N)c2)cs/c1=N\c1ccc(S(=O)(=O)O)cc1 [Compound 1, (Z)-4-(4-(3-cyanophenyl)-3-ethylthiazol-2(3H)-ylideneamino)benzenesulfonic acid]
100 to 250 | – | – | CCn1c(-c2c(Cl)cccc2Cl)cs/c1=N\c1ccc(C(=O)O)cc1 [Compound 38, (Z)-4-(4-(2,6-dichlorophenyl)-3-ethylthiazol-2(3H)-ylideneamino)benzoic acid]
> 5000 | – | – | CCc1ccc(-c2cn(-c3ccc(Cl)c(C(=O)O)c3)nn2)cc1 [Compound 68]
1000 to 5000 | – | – | O=C(O)c1cccc(-n2cc(-c3ccccc3F)nn2)c1 [Compound 60, 3-(4-(2-fluorophenyl)-1H-1,2,3-triazol-1-yl)benzoic acid]
100 to 250 | – | – | CCn1c(-c2ccccc2)cs/c1=N\c1ccc(S(=O)(=O)O)cc1 [Compound 37, (Z)-4-(3-ethyl-4-phenylthiazol-2(3H)-ylideneamino)benzenesulfonic acid]
250 to 500 | 60.4 | 290 | COc1ccc(-c2nc(-c3cccc(C(=O)O)c3)no2)cc1 [Compound 56, 3-(5-(4-methoxyphenyl)-1,2,4-oxadiazol-3-yl)-benzoic acid]
100 to 250 | – | – | CCn1c(-c2ccccc2Cl)cs/c1=N\c1ccc(S(=O)(=O)O)cc1 [Compound 30, (Z)-4-(4-(2-chlorophenyl)-3-ethylthiazol-2(3H)-ylideneamino)benzenesulfonic acid]
500 to 1000 | 75.2 | 604 | CCn1c(-c2ccccc2[N+](=O)[O-])cs/c1=N\c1ccc(C(=O)O)cc1 [Compound 44, (Z)-4-(3-ethyl-4-(2-nitrophenyl)thiazol-2(3H)-ylideneamino)benzoic acid]
500 to 1000 | – | – | CCc1ccc(-c2cn(-c3cc(F)cc(C(=O)O)c3)nn2)cc1 [Compound 66, 3-(4-(4-ethylphenyl)-1H-1,2,3-triazol-1-yl)-5-fluorobenzoic acid]
100 to 250 | – | – | CCn1c(-c2cc(Br)ccc2O)cs/c1=N\c1ccc(C(=O)O)cc1 [Compound 50, (Z)-4-(4-(5-bromo-2-hydroxyphenyl)-3-ethylthiazol-2(3H)-ylideneamino)benzoic acid]
500 to 1000 | – | – | CCn1c(-c2cccc(OCc3ccccc3)c2)cs/c1=N\c1ccc(C(=O)O)cc1 [Compound 26, (Z)-4-(4-(3-(benzyloxy)phenyl)-3-ethylthiazol-2(3H)-ylideneamino)benzoic acid]
1000 to 5000 | – | – | O=C(O)c1cccc(-n2cc(-c3ccc(Br)cc3)nn2)c1 [Compound 63, 3-(4-(4-bromophenyl)-1H-1,2,3-triazol-1-yl)benzoic acid]
250 to 500 | – | – | CCn1c(-c2ccccc2)cs/c1=N\c1c(F)c(F)c(C(=O)O)c(F)c1F [Compound 25, (Z)-4-(3-ethyl-4-phenylthiazol-2(3H)-ylideneamino)-2,3,5,6-tetrafluorobenzoic acid]
250 to 500 | 107 | 354 | CCn1c(-c2cccc3ccccc23)cs/c1=N\c1ccc(C(=O)O)cc1 [Compound 40, (Z)-4-(3-ethyl-4-(naphthalen-1-yl)thiazol-2(3H)-ylideneamino)benzoic acid]
100 to 250 | – | – | CCn1c(-c2cccc(Br)c2)cs/c1=N\c1ccc(S(=O)(=O)O)cc1 [Compound 5, (Z)-4-(4-(3-bromophenyl)-3-ethylthiazol-2(3H)-ylideneamino)benzenesulfonic acid]
500 to 1000 | – | – | CCC(C)n1c(-c2ccccc2)cs/c1=N\c1ccc(C(=O)O)cc1 (centres unmarked) [Compound 22, (Z)-4-(3-sec-butyl-4-phenylthiazol-2(3H)-ylideneamino)benzoic acid]
500 to 1000 | – | – | CCn1c(-c2ccccc2OC)cs/c1=N\c1ccc(C(=O)O)cc1 [Compound 32, (Z)-4-(3-ethyl-4-(2-methoxyphenyl)thiazol-2(3H)-ylideneamino)benzoic acid]
